The values that follow come from patent US9951058B2, “Compound, pharmaceutically acceptable salt or optical isomer thereof, method for preparing the same, and pharmaceutical composition for prevention or treatment of viral diseases containing same as active ingredient” (Korea Research Institute of Chemical Technology, priority 2012, dated 2018).

The test system of series [1] is HRV 14. The experiment in a line: Cytopathic effect (CPE) inhibition assay. In kind it is cell-based, human rhinovirus. The settings on record: Human rhinovirus sp., HeLa, 72 h, host cell HeLa, 3 days, MEM/2% FBS, MTT assay; read-out: EC50 HRV 14. (Protection from cytopathic effect is a common read-out in antiviral testing.)
Series [2] has as its system HRV 71. The experiment in a line: Cytopathic effect (CPE) inhibition assay. The format is cell-based, human rhinovirus. To be noted: Human rhinovirus sp., 72 h; host cell HeLa, 3 days, MEM/2% FBS, MTT assay; read-out: EC50 HRV 71.
Series [3] has as its system poliovirus 3 (PV3). The experiment in a line: microbe, parasite or virus in culture. In kind it is cell-based. To be noted: Enterovirus C, 72 h, read-out: EC50 PV3.
Series [4] in a line: Cytotoxicity (CC50) in multicycle CPE reduction assay, MTS. To be noted: human.
The test system of series [5] is coxsackievirus B3 (Cox B3). The series is described as follows: Multicycle cytopathic effect (CPE) reduction assay. In kind it is cell-based. To be noted: Enterovirus B, B3, 72 h, read-out: EC50 CoxB3.
Series [6] can be described thus: in vitro. The settings on record: human.
The test system of series [7] is coxsackievirus B1 (Cox B1). The series is described as follows: Multicycle cytopathic effect (CPE) reduction assay. In kind it is cell-based. To be noted: Enterovirus B, B1, 72 h, read-out: EC50 CoxB1.
For series [8], the system named is HRV 21. The experiment in a line: Cytopathic effect (CPE) inhibition assay. The settings on record: Human rhinovirus sp., 72 h; host cell HeLa, 3 days, MEM/2% FBS, MTT assay; read-out: EC50 HRV 21. In kind it is cell-based, human rhinovirus.

In brackets after ≈: the same amount, converted by molar mass.

Consider `CC(C)c1ccc2c(c1)OC1(O)c3ccccc3C(=O)C21NC(=O)C(=O)N1CCN(C)CC1` (centres unmarked) [Example 48, N-(4b-hydroxy-7-isopropyl-10-oxo-4b, 10-dihydro-9bH-indeno[1,2-b]benzofuran-9b-yl)-2-(4-methylpiperazin-1-yl)-2-oxo acetamide], for which the EC50 in series [1] is < 1 µg/mL; in series [2] it was > 10 µg/mL; in series [3], < 10 µg/mL; in series [5], < 0.1 µg/mL; in series [7], < 0.1 µg/mL; in series [8], > 10 µg/mL. Besides, the CC50 at 3 days in series [4] is > 10 µg/mL. In series [6], the CC50 is > 10 µg/mL.
`Cc1cc(C)c(C(=O)C(=O)NC23C(=O)c4cccc([N+](=O)[O-])c4C2(O)Oc2cc(C(C)C)ccc23)c(C)c1` (centres unmarked) [Example 51]: the EC50 in series [1] was > 10 µg/mL; in series [2], > 10 µg/mL; in series [3] it was > 10 µg/mL; in series [5], < 10 µg/mL; in series [7], < 10 µg/mL; in series [8], > 10 µg/mL. Moreover, the CC50 at 3 days in series [4] is > 10 µg/mL. In series [6], the CC50 was > 10 µg/mL.
Consider `CC(=O)C(=O)NC12C(=O)c3cccc([N+](=O)[O-])c3C1(O)Oc1cc(C(C)C)ccc12` (centres unmarked) [Example 19, N-(4b-hydroxy-7-isopropyl-4-nitro-10-oxo-4b, 10-dihydro-9bH-indeno[1,2-b]benzofuran-9b-yl)-2-oxo propanamide], for which the EC50 in series [1] was < 10 µg/mL; in series [2] it was > 10 µg/mL; in series [3], < 10 µg/mL; in series [5], < 1 µg/mL; in series [7], < 1 µg/mL; in series [8], > 10 µg/mL. Also, the CC50 at 3 days in series [4] is > 10 µg/mL. Further, the CC50 in series [6] is > 10 µg/mL.
Consider `CC(C)c1ccc2c(c1)OC1(O)c3ccccc3C(=O)C21NC(=O)CN` (centres unmarked) [Example 64, 2-amino-N-(4b-hydroxy-7-isopropyl-10-oxo-4b, 10-dihydro-9bH-indeno[1,2-b]benzofuran-9b-yl)acetamide], for which the EC50 in series [1] was < 10 µg/mL; in series [2], > 10 µg/mL; in series [3], > 10 µg/mL; in series [5], < 0.1 µg/mL; in series [7] it was < 0.1 µg/mL; in series [8], > 10 µg/mL. The CC50 at 3 days in series [4] is > 10 µg/mL. For the same compound, the CC50 in series [6] is > 10 µg/mL.
On to `CC(C)c1ccc2c(c1)OC1(O)c3cccc(N)c3C(=O)C21NC(=O)C(=O)N(C)C` (centres unmarked) [Example 31, N1-(1-amino-4b-hydroxy-7-isopropyl-10-oxo-4b, 10-dihydro-9bH-indeno[1,2-b]benzofuran-9b-yl)-N2, N2-dimethyl oxal amide], for which the EC50 is 0.012 µg/mL (≈ 0.0293 µM) in series [1]; 73 µg/mL (≈ 178 µM) in series [2]; < 0.1 µg/mL in series [3]; < 0.01 µg/mL in series [5]; < 0.01 µg/mL in series [7]; < 10 µg/mL in series [8]. In addition, the CC50 at 3 days in series [4] was > 10 µg/mL. Also, in series [6], the CC50 was > 10 µg/mL.
Take `CC(C)c1ccc2c(c1)OC1(O)c3ccccc3C(=O)C21NC(=O)CNC(=O)OC(C)(C)C` (centres unmarked) [Example 63, tert-butyl (2-((4b-hydroxy-7-isopropyl-10-oxo-4b, 10-dihydro-9bH-indeno[1,2-b]benzofuran-9b-yl)amino)-2-oxoethyl)carbamate]: the half-maximal effective concentration (EC50) is < 1 µg/mL in series [1]; > 10 µg/mL in series [2]; < 10 µg/mL in series [3]; < 0.1 µg/mL in series [5]; < 0.1 µg/mL in series [7]; > 10 µg/mL in series [8]. In addition, the CC50 at 3 days in series [4] is > 10 µg/mL. Moreover, the CC50 in series [6] is > 10 µg/mL.
Turning to `CCOC(=O)C(=O)NC12C(=O)c3ccccc3C1(O)Oc1cc(C(C)C)ccc12` (centres unmarked) [Example 32, Ethyl 2-((4b-hydroxy-7-isopropyl-10-oxo-4b, 10-dihydro-9bH-indeno[1,2-b]benzofuran-9b-yl)amino)-2-oxo acetate], the EC50 was < 1 µg/mL in series [1]; > 10 µg/mL in series [2]; < 10 µg/mL in series [3]; < 1 µg/mL in series [5]; < 0.1 µg/mL in series [7]; > 10 µg/mL in series [8]. For the same compound, the CC50 at 3 days in series [4] is > 10 µg/mL. The CC50 in series [6] is > 10 µg/mL.
Turning to `CCCCCCC(=O)C(=O)NC12C(=O)c3ccccc3C1(O)Oc1cc(C(C)C)ccc12` (centres unmarked) [Example 6, N-(4b-hydroxy-7-isopropyl-10-oxo-9b, 10-dihydro-4bH-indeno[1,2-b]benzofuran-9b-yl)-2-oxo octanamide], the EC50 in series [1] is < 1 µg/mL; in series [2], > 8.57 µg/mL; in series [3], 1.23 µg/mL (≈ 2.82 µM); in series [5], 0.015 µg/mL (≈ 0.0344 µM); in series [7], 0.013 µg/mL (≈ 0.0298 µM); in series [8], > 8.57 µg/mL. The CC50 at 3 days in series [4] was 8.57 µg/mL (≈ 19.7 µM). The same compound returned a CC50 in series [6] of 8.57 µg/mL (≈ 19.7 µM).
Take `CC(=N)NC12C(=O)c3ccccc3C1(O)Oc1cc(C(C)C)ccc12` (centres unmarked) [Example 60, N-(4b-hydroxy-7-isopropyl-10-oxo-4b, 10-dihydro-9bH-indeno[1,2-b]benzofuran-9b-yl)acetimide amide]: the EC50 in series [1] is < 10 µg/mL; in series [2] it was > 10 µg/mL; in series [3] it was > 10 µg/mL; in series [5], < 10 µg/mL; in series [7], < 1 µg/mL; in series [8], > 10 µg/mL. Moreover, the CC50 at 3 days in series [4] is > 10 µg/mL. In addition, in series [6], the CC50 was > 10 µg/mL.
With `CSCCC(=O)C(=O)NC12C(=O)c3ccccc3C1(O)Oc1cc(C(C)C)ccc12` (centres unmarked) [Example 17, N-(4b-hydroxy-7-isopropyl-10-oxo-9b, 10-dihydro-4bH-indeno[1,2-b]benzofuran-9b-yl)-4-(methylthio)-2-oxo butanamide], the EC50 in series [1] was 6.99 µg/mL (≈ 16.4 µM); in series [2], > 10 µg/mL; in series [3], 2.61 µg/mL (≈ 6.13 µM); in series [5], 0.067 µg/mL (≈ 0.157 µM); in series [7], 0.033 µg/mL (≈ 0.0776 µM); in series [8], > 10 µg/mL. Moreover, in series [4], the CC50 at 3 days was > 10 µg/mL. Further, the CC50 in series [6] was > 10 µg/mL.
Consider `CC(=O)C(=O)NC12C(=O)c3ccccc3C1(O)Oc1cc(C(C)C)ccc12` (centres unmarked) [Example 4, N-(4b-hydroxy-7-isopropyl-10-oxo-9b, 10-dihydro-4bH-indeno[1,2-b]benzofuran-9b-yl)-2-oxo propanamide], for which the EC50 in series [1] was < 0.1 µg/mL; in series [2], > 9.02 µg/mL; in series [3] it was < 1 µg/mL; in series [5], < 0.01 µg/mL; in series [7], < 0.01 µg/mL; in series [8], > 9.02 µg/mL. Besides, the CC50 at 3 days in series [4] was > 10 µg/mL. The same compound showed a CC50 in series [6] of 9.02 µg/mL (≈ 24.7 µM).
With `CC(C)c1ccc2c(c1)OC1(O)c3ccccc3C(=O)C21NC(=O)C(=O)c1ccccc1` (centres unmarked) [Example 15, N-(4b-hydroxy-7-isopropyl-10-oxo-9b, 10-dihydro-4bH-indeno[1,2-b]benzofuran-9b-yl)-2-oxo-2-phenyl acetamide], the EC50 was < 1 µg/mL in series [1]; > 8.72 µg/mL in series [2]; < 1 µg/mL in series [3]; < 0.01 µg/mL in series [5]; < 0.01 µg/mL in series [7]; > 8.72 µg/mL in series [8]. Further, the CC50 at 3 days in series [4] was determined as 8.8 µg/mL (≈ 20.6 µM). The same compound had a CC50 in series [6] of 8.72 µg/mL (≈ 20.4 µM).
In the case of `CC(C)c1ccc2c(c1)OC1(O)c3ccccc3C(=O)C21NC(N)=S` (centres unmarked) [Example 61, 1-(4b-hydroxy-7-isopropyl-10-oxo-4b, 10-dihydro-9bH-indeno[1,2-b]benzofuran-9b-yl)thiourea], the EC50 in series [1] is < 10 µg/mL; in series [2], > 10 µg/mL; in series [3], > 10 µg/mL; in series [5], < 1 µg/mL; in series [7], < 0.1 µg/mL; in series [8], > 10 µg/mL. Moreover, in series [4], the CC50 at 3 days is > 10 µg/mL. Also, the CC50 in series [6] was > 10 µg/mL.
Turning to `CC(C)c1ccc2c(c1)OC1(O)c3ccccc3C(=O)C21NC(=O)C(=O)CBr` (centres unmarked) [Example 41, 3-bromo-N-(4b-hydroxy-7-isopropyl-10-oxo-4b, 10-dihydro-9bH-indeno[1,2-b]benzofuran-9b-yl)-2-oxo propanamide], the EC50 is < 10 µg/mL in series [1]; > 10 µg/mL in series [2]; > 10 µg/mL in series [3]; < 0.1 µg/mL in series [5]; < 0.1 µg/mL in series [7]; > 10 µg/mL in series [8]. Also, the CC50 at 3 days in series [4] was > 10 µg/mL. In addition, in series [6], the CC50 is > 10 µg/mL.
Take `CCC(C)C(=O)C(=O)NC12C(=O)c3ccccc3C1(O)Oc1cc(C(C)C)ccc12` (centres unmarked) [Example 29, N-(4b-hydroxy-7-isopryl-10-oxo-4b, 10-dihydro-9bH-indeno[1,2-b]benzofuran-9b-yl)-3-methyl-2-oxo pentanamide]: the EC50 in series [1] was < 1 µg/mL; in series [2], > 10 µg/mL; in series [3], < 1 µg/mL; in series [5], < 0.1 µg/mL; in series [7], < 0.1 µg/mL; in series [8], > 10 µg/mL. In addition, in series [4], the CC50 at 3 days was > 10 µg/mL. For the same compound, in series [6], the CC50 was > 10 µg/mL.
On to `CCCCCCC(=O)C(=O)NC12C(=O)c3cccc([N+](=O)[O-])c3C1(O)Oc1cc(C(C)C)ccc12` (centres unmarked) [Example 35, N-(4b-hydroxy-7-isopropyl-4-nitro-10-oxo-4b, 10-dihydro-9bH-indeno[1,2-b]benzofuran-9b-yl)-2-oxo octanamide], for which the EC50 in series [1] was < 10 µg/mL; in series [2] it was > 10 µg/mL; in series [3] it was < 10 µg/mL; in series [5], < 1 µg/mL; in series [7], < 1 µg/mL; in series [8], > 10 µg/mL. Moreover, the CC50 at 3 days in series [4] is > 10 µg/mL. Moreover, the CC50 in series [6] is > 10 µg/mL.

For orientation: EC50 means the concentration at which the effect is half-maximal.
